Results as given in US8404696B2, “Quinazoline-2,4-dione derivative, and medical compositions for the prophylaxis and treatment of cranial nerve disease containing the same” (Shin Poong Pharmaceutical Co., Ltd., priority 2008, dated 2013).
≈ marks a conversion by molar mass, not a printed value.

Legend:
[1] = system: middle cerebral artery occlusion (MCAO) model; experiment: Anti-stroke effect in middle cerebral artery occlusion (MCAO) model, oral administration before inducing stroke; assay type: in vivo, rats of SD species; settings: 100 mg/kg po; for Infarcted volume (Mean ± standard deviation): negative control 0.45 ± 0.03
[2] = system: pentylentetrazole (PTZ)-induced convulsion; experiment: Anti-convulsant effect, pentylentetrazole (PTZ) test; assay type: in vivo; settings: 10 mg/kg intraperitoneally, PTZ 80 mg/kg subcutaneously
Outline: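 Compound was given intraperitoneally at 10 mg/kg before PTZ challenge. The read-outs were time to convulsion onset, time until convulsions fully disappeared, and mortality.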

SH-SY5Y cells = experiment: Inhibitory effect on ZnSO4-mediated cytotoxicity (MTT assay); assay type: cell-based, humans; settings: compound 50 μg/ml; 600 μM zinc sulfate, 24 hours
Description: SH-SY5Y cells were cultured with 3×10^4 cell concentration in 96 well plates, and the compound (50 μg/ml) was treated. After 30 minutes, 600 μM of zinc sulfate was treated to induce toxicity for 24 hours and survival rate of cells was measured by MTT assay.

mouse brain cells = experiment: Inhibitory effect on ROS production in brain cells (DCF-DA, NMDA-induced); assay type: cell-based
[3] = system: middle cerebral artery occlusion (MCAO) model; experiment: Anti-stroke effect in MCAO model, intravenous administration around reperfusion; assay type: in vivo, rats of SD species; settings: 5 mg/kg iv; for Infarcted volume (Mean ± standard deviation): negative control 0.43 ± 0.02
Description: Male rats of SD species with 290-300 g of body weight were used as laboratory animals, and 8 rats were used in each experiment group. The operation was performed by using the method of Nagasawa et al. (Nagasawa, H. and Gogure, K. 1989, Stroke, 20: 1037-1043).
The rats were anesthetized by Ketamine, and the operation was performed as body temperature was maintained using thermoplate. The cerebral region was incised following the median line of the neck, and the left common carotid artery, internal carotid artery and external carotid artery were separated, taking care not to damage the vagus nerve. The common carotid artery and external carotid artery were ligatured, and a probe was inserted into the internal carotid artery from the branch point of the internal and external carotid arteries. And then the fundus of the middle cerebral artery was occluded by ligature just on the upper side of the insertion region. A probe was made by heating the end of a 4-0 nylon surgical suture (Dafilon, B. Braun, Germany) and cut into 30 mm. The 7-9 mm end of the probe was coated with the mixture of silcon (Xantopren VL plus, Heraeus Kulzer, Germany) and curing agent (Optosyl-Xantopren VL plus, Heraeus Kulzer, Germany), and the thickness was to be 0.3-0.4 mm. After the intervention of the probe insertion and the animals came out of the anesthetic, individuals in which neurological deficit symptom (right direction circling) was observed were included in the ischemia group.
After 3 hours of ischemia, the inserted probe was removed to reperfuse blood circulation. The brain was extracted after 24 hours, followed by histological staining.
The compound 3 was administered at a programmed time before or after insertion of the probe with oral or intravenous administration. TTC (2,3,5-triphenyltetrazolium chloride) staining was performed to estimate the damage of brain tissue by ischemia. Procephalon of the extracted brain was sliced into 2 mm of sequential slice by using brain matrix (ASI instrument, Warren, Mich., USA). The slices were put into 2% of TTC solution and incubated at 37° C. for 60 minutes for staining. The TTC stained brain slice was fixed in 10% of formalin buffer and the front of the each slice was photographed with a digital camera. The infarcted areas (cm^2) that were not stained with deep red in each acquired image were measured using an image analyzer, and total infarcted volume (cm^3) was calculated by multiplying the thickness of the slices
In the experiment, the probe was removed after stoke induction so that circulation was reperfused.

[4] = system: superoxide dismutase (SOD); experiment: Increase of superoxide dismutase (SOD) activity in mouse brain cells; assay type: cell-based; settings: 100 μg/ml
Description: ROS inhibitory effect of compounds was represented to the dose suppressing 50% of production of reactive oxygen compared to control. […] The activity of superoxide dismutase (SOD) was measured by using a kit acquired in Sigma.

[5] = treatment time 0 (right before inducing ischemic stroke)
[6] = treatment time 1 (an hour before inducing ischemic stroke)
[7] = treatment time 0.5 after reperfusion
[8] = treatment time 1 after reperfusion
[9] = treatment time 2 after reperfusion
[10] = treatment time 4 after reperfusion
[11] = treatment time 6 after reperfusion
[12] = treatment time 12 (hours) after reperfusion
[13] = treatment time 18 after reperfusion
[14] = treatment time 24 after reperfusion
[15] = treatment time −0.5 after reperfusion

CC(=O)N(CCCCNCCCn1c(=O)[nH]c2ccccc2c1=O)CCCn1c(=O)[nH]c2ccccc2c1=O [Compound 3, N-[3-(2,4-dioxo-1,4-dihydro-2H-quinazolin-3-yl)propyl]-N-{4-[3-(2,4-dioxo-1,4-dihydro-2H-quinazolin-3-yl)propylamino]butyl}acetamide]
Inhibitory percentage compared to negative control [1, 5]: 69.8% | Infarcted volume (Mean ± standard deviation) [1, 5]: 0.14 ± 0.02 cm^3 | Inhibitory percentage compared to negative control [1, 6]: 22.3% | Infarcted volume (Mean ± standard deviation) [1, 6]: 0.35 ± 0.07 cm^3 | mortality rate ([2]; (animals/total), negative control 70(17/23)): 17(2/12) % | Induction percentage of convulsion ([2]; (animals/total), negative control 100(23/23)): 50(6/12) % | Initiation time of convulsion ([2]; negative control 5.0 ± 0.7): 34.7 ± 7.7 min | Duration of convulsion ([2]; negative control 46.7 ± 3.3): 11.8 ± 5.6 min | inhibitory percentage, zinc-induced toxicity (SH-SY5Y cells): 17.6 ± 3.5% | Suppression of oxidative stress induced by NMDA (DCF fluorescence) (mouse brain cells; 125 μg/ml and 250 μg/ml, 300 μM NMDA, 24 hours, FIG. 2): suppressed the oxidative stress induced by NMDA of nerve cells in a dose-dependent manner | IC50 (mouse brain cells; 24 h, dose suppressing 50% of production of reactive oxygen compared to control, mouse brain cells, read-out: ROS inhibitory effect ID50): 108 ± 27.2 µg/mL (≈ 203 µM) | Inhibitory percentage compared to negative control [3, 7]: 72.3% | Infarcted volume (Mean ± standard deviation) [3, 7]: 0.12 ± 0.03 cm^3 | Inhibitory percentage compared to negative control [3, 8]: 53.8% | Infarcted volume (Mean ± standard deviation) [3, 8]: 0.20 ± 0.04 cm^3 | Inhibitory percentage compared to negative control [3, 9]: 49.9% | Infarcted volume (Mean ± standard deviation) [3, 9]: 0.22 ± 0.02 cm^3 | Inhibitory percentage compared to negative control [3, 10]: 47.9% | Infarcted volume (Mean ± standard deviation) [3, 10]: 0.22 ± 0.09 cm^3 | Inhibitory percentage compared to negative control [3, 11]: 60.9% | Infarcted volume (Mean ± standard deviation) [3, 11]: 0.17 ± 0.04 cm^3 | Inhibitory percentage compared to negative control [3, 12]: 62.7% | Infarcted volume (Mean ± standard deviation) [3, 12]: 0.16 ± 0.04 cm^3 | Inhibitory percentage compared to negative control [3, 13]: 13.5% | Infarcted volume (Mean ± standard deviation) [3, 13]: 0.37 ± 0.03 cm^3 | Inhibitory percentage compared to negative control [3, 14]: 16.3% | Infarcted volume (Mean ± standard deviation) [3, 14]: 0.36 ± 0.08 cm^3 | Inhibitory percentage compared to negative control [3, 15]: 67.2% | Infarcted volume (Mean ± standard deviation) [3, 15]: 0.14 ± 0.03 cm^3 | Increase of SOD activity, compared to control [4]: 3.2 ± 2.7
